Experimental data published in the supplement of paper PMC11628255, “Interference of metal ions on the bioluminescent signal of firefly, Renilla, and NanoLuc luciferases in high-throughput screening assays” (Frontiers in Chemistry, 2024).

Legend:
Test in all cases: normalised percent inhibition of luminescence (vs positive and negative controls); higher = stronger inhibition
[1] = tested on: firefly luciferase (FLuc); conditions: 100 mM HEPES buffer
Protocol: (§1)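 Concentration-response (>=11 concentrations) of metal salts on purified FLuc, NLuc or RLuc luminescence in screening (SC) or 100 mM HEPES (H) buffer; salt pre-incubated with enzyme 10 min at RT, read 10 min after substrate. Normalised percent inhibition vs plate positive (PTC-124, isradipine, BTS) and DMSO negative controls; triplicate wells.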

[2] = tested on: Renilla luciferase (RLuc)
Protocol: as §1

[3] = tested on: NanoLuc luciferase (NLuc)
Protocol: as §1

O=[N+]([O-])[O-].O=[N+]([O-])[O-].[Cd+2] [cadmium nitrate]
[1]
Conditions	normalised percent inhibition [%]
metal salt concentration 0.0001 mM	-14
metal salt concentration 0.00025 mM	-6.16
metal salt concentration 0.0005 mM	6.48
metal salt concentration 0.001 mM	33.8
metal salt concentration 0.025 mM	95.9
metal salt concentration 0.05 mM	99.08
metal salt concentration 0.1 mM	99.41
metal salt concentration 0.5 mM	100.3
metal salt concentration 1 mM	100.3
metal salt concentration 2.5 mM	100.3
metal salt concentration 5 mM	99.3

normalised percent inhibition [%]
Conditions	[2]	[3]
metal salt concentration 0.0001 mM, 100 mM HEPES buffer	-40.7	-0.809
metal salt concentration 0.00025 mM, 100 mM HEPES buffer	-15.8	-0.623
metal salt concentration 0.0005 mM, 100 mM HEPES buffer	-51.3	-3.63
metal salt concentration 0.001 mM, 100 mM HEPES buffer	-29.6	-0.485
metal salt concentration 0.002 mM, screening conditions buffer	-8.95	4.83
metal salt concentration 0.005 mM, screening conditions buffer	-5.21	6.73
metal salt concentration 0.01 mM, screening conditions buffer	-13.5	0.612
metal salt concentration 0.02 mM, screening conditions buffer	-3.71	-0.781
metal salt concentration 0.025 mM, 100 mM HEPES buffer	-16	-1.09
metal salt concentration 0.05 mM, 100 mM HEPES buffer	-20.9	4.79
metal salt concentration 0.05 mM, screening conditions buffer	-1.96	17.7
metal salt concentration 0.1 mM, 100 mM HEPES buffer	18	13
metal salt concentration 0.1 mM, screening conditions buffer	-1.09	7.22
metal salt concentration 0.2 mM, screening conditions buffer	-5.06	20.6
metal salt concentration 0.5 mM, 100 mM HEPES buffer	47.1	18.6
metal salt concentration 0.5 mM, screening conditions buffer	39.6	30.7
metal salt concentration 1 mM, 100 mM HEPES buffer	95.1	24.8
metal salt concentration 1 mM, screening conditions buffer	68.6	56.2
metal salt concentration 2.5 mM, 100 mM HEPES buffer	104	20.6
metal salt concentration 2.5 mM, screening conditions buffer	79.4	93.1
metal salt concentration 5 mM, 100 mM HEPES buffer	105	26.5
metal salt concentration 5 mM, screening conditions buffer	93.4	113

O=[N+]([O-])[O-].O=[N+]([O-])[O-].[Cu+2] [copper(II) nitrate]
[1]
Conditions	normalised percent inhibition [%]
metal salt concentration 0.0001 mM	87.3
metal salt concentration 0.00025 mM	98.97
metal salt concentration 0.0005 mM	100.2
metal salt concentration 0.001 mM	100.5
metal salt concentration 0.025 mM	100.3
metal salt concentration 0.05 mM	100.6
metal salt concentration 0.1 mM	100.5
metal salt concentration 0.5 mM	100.5
metal salt concentration 1 mM	100.4
metal salt concentration 2.5 mM	100.4
metal salt concentration 5 mM	99.95

normalised percent inhibition [%]
Conditions	[2]	[3]
metal salt concentration 0.0001 mM, 100 mM HEPES buffer	-51.9	-0.372
metal salt concentration 0.00025 mM, 100 mM HEPES buffer	-48.5	-0.297
metal salt concentration 0.0005 mM, 100 mM HEPES buffer	-45.4	1.75
metal salt concentration 0.001 mM, 100 mM HEPES buffer	-40	0.0805
metal salt concentration 0.002 mM, screening conditions buffer	-3.55	14.1
metal salt concentration 0.005 mM, screening conditions buffer	-13.6	18.8
metal salt concentration 0.01 mM, 100 mM HEPES buffer	62.8	7.71
metal salt concentration 0.01 mM, screening conditions buffer	-1.01	65.1
metal salt concentration 0.02 mM, screening conditions buffer	-23.7	133
metal salt concentration 0.025 mM, 100 mM HEPES buffer	105	59.8
metal salt concentration 0.05 mM, 100 mM HEPES buffer	106	95.4
metal salt concentration 0.05 mM, screening conditions buffer	-13	135.6
metal salt concentration 0.1 mM, 100 mM HEPES buffer	106.6	99.6
metal salt concentration 0.1 mM, screening conditions buffer	-8.47	136.5
metal salt concentration 0.2 mM, screening conditions buffer	105.7	136.6
metal salt concentration 0.5 mM, 100 mM HEPES buffer	105	101.5
metal salt concentration 0.5 mM, screening conditions buffer	107	137.2
metal salt concentration 1 mM, 100 mM HEPES buffer	–	101.9
metal salt concentration 1 mM, screening conditions buffer	105.8	137.4
metal salt concentration 2.5 mM, 100 mM HEPES buffer	–	101
metal salt concentration 2.5 mM, screening conditions buffer	105.7	137.3
metal salt concentration 5 mM, 100 mM HEPES buffer	–	102.11
metal salt concentration 5 mM, screening conditions buffer	106.3	137.49
